Among the data in patent publication US12037322B2, “AHR agonists” (Eli Lilly and Company, priority 2021, dated 2024) are EC50 values, retold here.

The EC50 is the concentration needed to bring the measured effect to its halfway point.

In this assay the target is T1, hAHR (Homo sapiens, UniProt P35869).
T1 construct: expressed in transfected cells
T1 sequence (P35869 11-848): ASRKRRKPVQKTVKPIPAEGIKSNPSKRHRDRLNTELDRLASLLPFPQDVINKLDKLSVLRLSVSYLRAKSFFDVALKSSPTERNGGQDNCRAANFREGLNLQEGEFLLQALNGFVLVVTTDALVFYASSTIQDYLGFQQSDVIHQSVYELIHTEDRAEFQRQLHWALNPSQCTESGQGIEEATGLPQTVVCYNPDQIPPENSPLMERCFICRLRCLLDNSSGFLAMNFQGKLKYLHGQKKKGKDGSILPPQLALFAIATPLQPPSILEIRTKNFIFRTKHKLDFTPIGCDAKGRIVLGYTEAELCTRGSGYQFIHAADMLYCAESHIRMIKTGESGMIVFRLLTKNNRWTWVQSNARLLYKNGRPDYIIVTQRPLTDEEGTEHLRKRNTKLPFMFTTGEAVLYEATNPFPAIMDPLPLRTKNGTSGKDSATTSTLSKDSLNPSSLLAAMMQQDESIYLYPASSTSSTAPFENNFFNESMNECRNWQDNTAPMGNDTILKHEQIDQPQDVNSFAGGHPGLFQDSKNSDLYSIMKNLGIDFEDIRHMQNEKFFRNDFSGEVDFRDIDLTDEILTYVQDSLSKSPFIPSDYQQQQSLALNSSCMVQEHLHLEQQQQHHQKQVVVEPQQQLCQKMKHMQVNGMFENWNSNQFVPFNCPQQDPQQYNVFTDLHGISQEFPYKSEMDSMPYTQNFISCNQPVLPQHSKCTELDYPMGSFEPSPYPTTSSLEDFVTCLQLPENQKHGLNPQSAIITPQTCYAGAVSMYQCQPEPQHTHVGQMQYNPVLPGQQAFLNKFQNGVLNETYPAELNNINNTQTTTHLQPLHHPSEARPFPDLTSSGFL
The experiment in a line: hAHR nuclear translocation assay. The assay is classed as cell-based. Conditions: Jump-In T-REx HEK293 cells expressing AhR-EGFP; 45 min incubation; ratio of EGFP intensity in nuclear over cytosol; 20-point curve. As to the method: Stable cell lines were established using Jump-In™ T-REx™ HEK293 Retargeting Kit (Life Technologies). hAhR cDNA was cloned into the pJTI R4 CMV-TO EGFP vector. The EGFP was cloned to the C-terminal of AHR to form AhR-EGFP chimera. The pJTI R4 CMV-TO AhR-EGFP vector was transfected using FuGENE® HD into Jump-In™ T-REx™ HEK293 cells. Transfected cells were selected using 2.5 mg/ml G418 for 10 to 14 days, then expanded, harvested, and suspended in freeze media (FBS with 8% DMSO) at 2×10^7 cells/mL, and aliquots were stored in liquid nitrogen. One day before the assay date, cells were thawed and resuspended in DMEM with 5% FBS in the presence of 1 μg/mL Doxycycline and plated into ploy-L-Lysine coated […]-384 ULTRA Microplates (Perkin Elmer) at 12,000 to 15,000 cells per well and incubated at 37° C. and 5% CO2 overnight. On the assay date, compound was serially diluted (1:2) into 384-well nunc plates with DMSO using acoustic dispensing (ECHO). The dose response was a 20-point curve. Compound was resuspended in 40 μL of DMEM plus 0.1% BSA. The culture media was damped and 25 μL of DMEM plus 0.1% BSA was added, then 25 μL of compound in DMEM plus 0.1% BSA was added into cell plates. Cells were incubated with compounds at 37° C. and 5% CO2 for 45 min.
The final DMSO concentration was 0.2%. The media was damped after 45 minutes incubation. The cells were fixed with 40 μL of cold MeOH (−20° C.) for 20 min. The MeOH was damped and 50 μL of DPBS containing 1 μg/mL Hochst was added into the cell plates. The intensity of EGFP was quantitated by using OPERA PHENIX® or Operetta™ high content image system (Perkin Elmer) with 20× Water Objective and five field per well. The ratio of EGFP fluorescent intensity in nuclear over cytosol was analyzed using a 4-parameter nonlinear logistic equation to determine the potency of AhR agonists.
Turning to `CC1CCc2c1cc(C(=O)NC1CCCC1)c(=O)n2C` (single isomer, unassigned) [Example 61, N-Cyclopentyl-1,5-dimethyl-2-oxo-6,7-dihydro-5H-cyclopenta[b]pyridine-3-carboxamide], the EC50 stood at 42 nM.
Next, `CC1CCc2cc(C(=O)Nc3ccccc3)c(=O)n(C)c21` (centres unmarked) [Example 52, 1,7-Dimethyl-2-oxo-N-phenyl-6,7-dihydro-5H-cyclopenta[b]pyridine-3-carboxamide]: 6.4 nM; `CC1CCc2c1cc(C(=O)NC1CCCC1)c(=O)n2C` (centres unmarked) [Example 9, N-Cyclopentyl-1,5-dimethyl-2-oxo-6,7-dihydro-5H-cyclopenta[b]pyridine-3-carboxamide]: 191 nM; `CC1CCc2c1cc(C(=O)Nc1ccc(C(F)(F)F)cn1)c(=O)n2C` (centres unmarked) [Example 4, 1,5-Dimethyl-2-oxo-N-[5-(trifluoromethyl)-2-pyridyl]-6,7-dihydro-5H-cyclopenta[b]pyridine-3-carboxamide]: 1.82 nM.
Next, `C[C@H]1CCc2c1cc(C(=O)Nc1ncc(F)cn1)c(=O)n2C` [Example 13, (5S)-N-(5-Fluoropyrimidin-2-yl)-1,5-dimethyl-2-oxo-6,7-dihydro-5H-cyclopenta[b]pyridine-3-carboxamide]: 4.67 nM; `Cn1c2c(cc(C(=O)Nc3ccc(F)cn3)c1=O)CC(C)(C)C2` [Example 48, N-(5-Fluoro-2-pyridyl)-1,6,6-trimethyl-2-oxo-5,7-dihydrocyclopenta[b]pyridine-3-carboxamide]: 11.3 nM.
Take `CC(C)CCNC(=O)c1c(O)c2c(n(C)c1=O)CCCC2` [Example 111, 4-Hydroxy-N-isopentyl-1-methyl-2-oxo-5,6,7,8-tetrahydroquinoline-3-carboxamide]: the EC50 was found to be 10.3 nM.
Next, `COc1cnc(NC(=O)c2c(O)c3c(n(C)c2=O)CCC3C)nc1` (single isomer, unassigned) [Example 102, 4-Hydroxy-N-(5-methoxypyrimidin-2-yl)-1,5-dimethyl-2-oxo-6,7-dihydro-5H-cyclopenta[b]pyridine-3-carboxamide]: 2.59 nM; `CC1CCc2c1c(O)c(C(=O)Nc1ccccn1)c(=O)n2C` (single isomer, unassigned) [Example 90, 4-Hydroxy-1,5-dimethyl-2-oxo-N-(2-pyridyl)-6,7-dihydro-5H-cyclopenta[b]pyridine-3-carboxamide]: 2.89 nM.
Turning to `CC1CCc2c1cc(C(=O)Nc1ncc(C(F)(F)F)cn1)c(=O)n2C` (single isomer, unassigned) [Example 64, 1,5-Dimethyl-2-oxo-N-[5-(trifluoromethyl)pyrimidin-2-yl]-6,7-dihydro-5H-cyclopenta[b]pyridine-3-carboxamide], the EC50 is 1.54 nM.
For `Cc1nc2ccc(NC(=O)c3cc4c(n(C)c3=O)CCC(C)(C)C4)cc2o1` [Example 50, 1,6,6-Trimethyl-N-(2-methyl-1,3-benzoxazol-6-yl)-2-oxo-7,8-dihydro-5H-quinoline-3-carboxamide] the value was 8.27 nM; for `CC1CCc2c1c(O)c(C(=O)Nc1ncc(Cl)cn1)c(=O)n2C` (single isomer, unassigned) [Example 93, N-(5-Chloropyrimidin-2-yl)-4-hydroxy-1,5-dimethyl-2-oxo-6,7-dihydro-5H-cyclopenta[b]pyridine-3-carboxamide], 1.06 nM; for `C[C@@H]1CCc2c1cc(C(=O)Nc1ncc(Cl)cn1)c(=O)n2C` [Example 25, (5R)-N-(5-Chloropyrimidin-2-yl)-1,5-dimethyl-2-oxo-6,7-dihydro-5H-cyclopenta[b]pyridine-3-carboxamide], 1.91 nM.
For `Cn1c2c(cc(C(=O)Nc3ccccc3)c1=O)CCC2` [Example 108, 1-Methyl-2-oxo-N-phenyl-6,7-dihydro-5H-cyclopenta[b]pyridine-3-carboxamide] the value was 2.5 nM.
For `C[C@@H]1CCc2c1c(O)c(C(=O)Nc1ncccn1)c(=O)n2C` (single isomer, unassigned) [Example 86, 4-Hydroxy-1,5-dimethyl-2-oxo-N-pyrimidin-2-yl-6,7-dihydro-5H-cyclopenta[b]pyridine-3-carboxamide] the value was 7.79 nM; for `CC1CCc2c1c(O)c(C(=O)Nc1ncccn1)c(=O)n2C` (single isomer, unassigned) [Example 85, 4-Hydroxy-1,5-dimethyl-2-oxo-N-pyrimidin-2-yl-6,7-dihydro-5H-cyclopenta[b]pyridine-3-carboxamide], 4.1 nM.
For `C[C@H]1CCc2c1cc(C(=O)Nc1ccsn1)c(=O)n2C` [Example 19, (5S)-N-Isothiazol-3-yl-1,5-dimethyl-2-oxo-6,7-dihydro-5H-cyclopenta[b]pyridine-3-carboxamide], the EC50 worked out at 1.04 nM.
For `CC1CCc2c1c(O)c(C(=O)Nc1ncccc1F)c(=O)n2C` (single isomer, unassigned) [Example 91, N-(3-Fluoro-2-pyridyl)-4-hydroxy-1,5-dimethyl-2-oxo-6,7-dihydro-5H-cyclopenta[b]pyridine-3-carboxamide] the value was 4.86 nM; for `CC1CCc2c1c(O)c(C(=O)Nc1ccc(F)cn1)c(=O)n2C` (centres unmarked) [Example 26, N-(5-Fluoro-2-pyridyl)-4-hydroxy-1,5-dimethyl-2-oxo-6,7-dihydro-5H-cyclopenta[b]pyridine-3-carboxamide], 2.87 nM; for `COc1cnc(NC(=O)c2c(O)c3c(n(C)c2=O)CCC3C)nc1` (single isomer, unassigned) [Example 101, 4-Hydroxy-N-(5-methoxypyrimidin-2-yl)-1,5-dimethyl-2-oxo-6,7-dihydro-5H-cyclopenta[b]pyridine-3-carboxamide], 6.01 nM.
In the case of `CC1CCc2c1c(O)c(C(=O)Nc1ncc(F)cn1)c(=O)n2C` (single isomer, unassigned) [Example 96, N-(5-Fluoropyrimidin-2-yl)-4-hydroxy-1,5-dimethyl-2-oxo-6,7-dihydro-5H-cyclopenta[b]pyridine-3-carboxamide], the EC50 turned out to be 0.6 nM.
Next, `C[C@H]1CCc2c1cc(C(=O)Nc1ccccn1)c(=O)n2C` [Example 22, (5S)-1,5-Dimethyl-2-oxo-N-(2-pyridyl)-6,7-dihydro-5H-cyclopenta[b]pyridine-3-carboxamide]: 4.1 nM; `CC(C)C1CCc2c1cc(C(=O)Nc1ncc(F)cn1)c(=O)n2C` (single isomer, unassigned) [Example 112, N-(5-fluoropyrimidin-2-yl)-5-isopropyl-1-methyl-2-oxo-6,7-dihydro-5H-cyclopenta[b]pyridine-3-carboxamide]: 0.865 nM.
Next, `CC1CCc2c1c(O)c(C(=O)Nc1ccns1)c(=O)n2C` (single isomer, unassigned) [Example 36, 4-Hydroxy-N-isothiazol-5-yl-1,5-dimethyl-2-oxo-6,7-dihydro-5H-cyclopenta[b]pyridine-3-carboxamide]: 2.78 nM.
Next, `CC1CCc2c1c(O)c(C(=O)Nc1ccc(C(F)(F)F)nc1)c(=O)n2C` (centres unmarked) [Example 28, 4-Hydroxy-1,5-dimethyl-2-oxo-N-[6-(trifluoromethyl)-3-pyridyl]-6,7-dihydro-5H-cyclopenta[b]pyridine-3-carboxamide]: 3.68 nM; `CC1CCc2c1cc(C(=O)NC1CCCC1)c(=O)n2C` (single isomer, unassigned) [Example 60, N-Cyclopentyl-1,5-dimethyl-2-oxo-6,7-dihydro-5H-cyclopenta[b]pyridine-3-carboxamide]: 396 nM.
